Reference: paper PMC9520563 (ACS Omega, 2022)

Key:
[1] = test system: MDA-MB-231; experiment: cells; conditions: Homo sapiens, MDA-MB-231, 72 h, read-out: IC50 MDA-MB-231
[2] = test system: HepG2; experiment: cells; conditions: Homo sapiens, HepG2, 72 h, read-out: IC50 HepG2
[3] = target: porcine brain tubulin (Sus scrofa, UniProt P02550+P02554); experiment: biochemical; conditions: read-out: % inhibition of tubulin polymerization
[4] = test system: HepG2; conditions: IC50 on LLC-PK1 divided by IC50 on HepG2
[5] = test system: MDA-MB-231; conditions: IC50 on LLC-PK1 divided by IC50 on MDA-MB-231

Sequence of porcine brain tubulin (P02550 whole entry): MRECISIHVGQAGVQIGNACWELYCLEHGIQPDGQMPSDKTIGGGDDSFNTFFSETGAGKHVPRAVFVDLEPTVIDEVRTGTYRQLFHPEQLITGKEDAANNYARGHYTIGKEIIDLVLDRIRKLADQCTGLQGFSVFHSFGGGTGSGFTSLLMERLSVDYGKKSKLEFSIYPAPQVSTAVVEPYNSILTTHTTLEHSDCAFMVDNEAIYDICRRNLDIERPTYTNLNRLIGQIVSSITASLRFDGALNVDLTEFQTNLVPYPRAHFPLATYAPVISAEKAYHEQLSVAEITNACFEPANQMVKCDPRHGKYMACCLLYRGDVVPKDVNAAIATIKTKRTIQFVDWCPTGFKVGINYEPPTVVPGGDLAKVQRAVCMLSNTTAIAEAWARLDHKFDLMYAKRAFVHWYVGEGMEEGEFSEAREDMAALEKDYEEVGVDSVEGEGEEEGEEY
Sequence of porcine brain tubulin (P02554 whole entry): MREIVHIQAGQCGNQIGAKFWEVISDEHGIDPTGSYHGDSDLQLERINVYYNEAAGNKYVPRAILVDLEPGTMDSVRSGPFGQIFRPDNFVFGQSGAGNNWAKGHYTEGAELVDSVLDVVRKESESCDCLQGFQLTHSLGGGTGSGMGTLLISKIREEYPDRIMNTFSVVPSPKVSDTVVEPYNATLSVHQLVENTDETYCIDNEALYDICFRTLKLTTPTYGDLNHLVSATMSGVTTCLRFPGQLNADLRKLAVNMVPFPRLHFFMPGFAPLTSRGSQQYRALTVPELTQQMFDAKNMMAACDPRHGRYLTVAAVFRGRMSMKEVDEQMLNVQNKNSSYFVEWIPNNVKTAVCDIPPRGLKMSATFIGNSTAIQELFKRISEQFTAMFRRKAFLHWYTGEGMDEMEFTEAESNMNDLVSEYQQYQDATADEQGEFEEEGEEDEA

SMILES | IC50 [1] | IC50 [2] | inhibition at 20 µM [3] | SI HepG2 [4] | SI MDA-MB-231 [5]
COc1cc(/C=C/C(=O)/C=C/c2c(C)nn(-c3ccccc3)c2Cl)cc(OC)c1OC [Compound 7g, (1E,4E)-1-(5-Chloro-3-methyl-1-phenyl-1H-pyrazol-4-yl)-5-(3,4,5-trimethoxyphenyl)penta-1,4-dien-3-one] | 7.84 ± 0.07 µM | 13.03 ± 0.12 µM | – | – | –
COc1ccc(/C=C/C(=O)/C=C/c2cn(-c3ccccc3)nc2-c2ccccc2)cc1OC [Compound 10a, (1E,4E)-1-(3,4-Dimethoxyphenyl)-5-(1,3-diphenyl-1H-pyrazol-4-yl)penta-1,4-dien-3-one] | 23.3 ± 2.37 µM | > 25 µM | – | – | –
COc1ccc(/C=C/C(=O)/C=C/c2c(C)nn(-c3cccc([N+](=O)[O-])c3)c2Cl)cc1OC [Compound 8a, (1E,4E)-1-[5-Chloro-3-methyl-1-(3-nitrophenyl)-1H-pyrazol-4-yl]-5-(3,4-dimethoxyphenyl)penta-1,4-dien-3-one] | 6.89 ± 0.31 µM | 7.19 ± 0.37 µM | 25.9 ± 0.33% | 2.93 | 3.05
COc1ccc(/C=C/C(=O)/C=C/c2c(C)nn(-c3cccc([N+](=O)[O-])c3)c2Cl)c(OC)c1 [Compound 8b, (1E,4E)-1-[5-Chloro-3-methyl-1-(3-nitrophenyl)-1H-pyrazol-4-yl]-5-(2,4-dimethoxyphenyl)penta-1,4-dien-3-one] | 12.3 ± 1.29 µM | 18.3 ± 3.14 µM | – | – | –
CCOc1cc(/C=C/C(=O)/C=C/c2c(C)nn(-c3ccccc3)c2Cl)ccc1O [Compound 7e, (1E,4E)-1-(5-Chloro-3-methyl-1-phenyl-1H-pyrazol-4-yl)-5-(4-hydroxy-3-ethoxyphenyl)penta-1,4-dien-3-one] | 13.5 ± 1.43 µM | 13.2 ± 1.41 µM | – | – | –
COc1cc(/C=C/C(=O)/C=C/c2c(C)nn(-c3ccccc3)c2Cl)cc(OC)c1O [Compound 7h, (1E,4E)-1-(5-Chloro-3-methyl-1-phenyl-1H-pyrazol-4-yl)-5-(4-hydroxy-3,5-dimethoxyphenyl)penta-1,4-dien-3-one] | 3.64 ± 0.02 µM | 6.03 ± 0.06 µM | 45.3 ± 0.81% | 2.14 | –
COc1ccc(/C=C/C(=O)/C=C/c2c(C)nn(-c3ccccc3)c2Cl)cc1O [Compound 7d, (1E,4E)-1-(5-Chloro-3-methyl-1-phenyl-1H-pyrazol-4-yl)-5-(3-hydroxy-4-methoxyphenyl)penta-1,4-dien-3-one] | 5.61 ± 0.24 µM | 14.2 ± 0.77 µM | 52 ± 0.65% | 1.14 | –
COc1cc(/C=C/C(=O)/C=C/c2c(C)nn(-c3cccc([N+](=O)[O-])c3)c2Cl)ccc1O [Compound 8c, (1E,4E)-1-[5-Chloro-3-methyl-1-(3-nitrophenyl)-1H-pyrazol-4-yl]-5-(4-hydroxy-3-methoxyphenyl)penta-1,4-dien-3-one] | 7 ± 0.02 µM | 16.6 ± 0.45 µM | – | – | –
COc1cc(/C=C/C(=O)/C=C/c2cn(-c3ccccc3)nc2-c2ccccc2)ccc1O [Compound 10c, (1E,4E)-1-(1,3-Diphenyl-1H-pyrazol-4-yl)-5-(4-hydroxy-3-methoxyphenyl)penta-1,4-dien-3-one] | 5.5 ± 0.22 µM | 10.6 ± 1.38 µM | 40.76 ± 0.33% | 1.49 | –
COc1cc(/C=C/C(=O)/C=C/c2cn(-c3ccccc3)nc2-c2ccccc2)cc(OC)c1O [Compound 10h, (1E,4E)-1-(1,3-Diphenyl-1H-pyrazol-4-yl)-5-(4-hydroxy-3,5-dimethoxyphenyl)penta-1,4-dien-3-one] | 4.06 ± 0.02 µM | 4.98 ± 0.09 µM | 25.73 ± 0.15% | 2.05 | 2.51
Cc1nn(-c2cccc([N+](=O)[O-])c2)c(Cl)c1/C=C/C(=O)/C=C/c1ccc2c(c1)OCO2 [Compound 8f, (1E,4E)-1-(Benzo[d][1,3]dioxol-5-yl)-5-(5-chloro-3-methyl-1-(3-nitrophenyl)-1H-pyrazol-4-yl)penta-1,4-dien-3-one] | > 25 µM | > 25 µM | – | – | –
CCOc1cc(/C=C/C(=O)/C=C/c2c(C)nn(-c3cccc([N+](=O)[O-])c3)c2Cl)ccc1O [Compound 8e, (1E,4E)-1-[5-Chloro-3-methyl-1-(3-nitrophenyl)-1H-pyrazol-4-yl]-5-(4-hydroxy-3-ethoxyphenyl)penta-1,4-dien-3-one] | 15.1 ± 0.2 µM | 11.18 ± 0.04 µM | – | – | –
CCOc1cc(/C=C/C(=O)/C=C/c2cn(-c3ccccc3)nc2-c2ccccc2)ccc1O [Compound 10e, (1E,4E)-1-(1,3-Diphenyl-1H-pyrazol-4-yl)-5-(4-hydroxy-3-ethoxyphenyl)penta-1,4-dien-3-one] | 6.14 ± 0.33 µM | 13.5 ± 1.53 µM | – | – | –
COc1ccc(/C=C/C(=O)/C=C/c2c(C)nn(-c3ccccc3)c2Cl)c(OC)c1 [Compound 7b, (1E,4E)-1-(5-Chloro-3-methyl-1-phenyl-1H-pyrazol-4-yl)-5-(2,4-dimethoxyphenyl)penta-1,4-dien-3-one] | 13.3 ± 0.39 µM | > 25 µM | – | – | –
COc1ccc(/C=C/C(=O)/C=C/c2c(C)nn(-c3ccccc3)c2Cl)cc1OC [Compound 7a, (1E,4E)-1-(5-Chloro-3-methyl-1-phenyl-1H-pyrazol-4-yl)-5-(3,4-dimethoxyphenyl)penta-1,4-dien-3-one] | 6.6 ± 0.16 µM | 11.6 ± 1.2 µM | – | – | –
COc1cc(/C=C/C(=O)/C=C/c2c(C)nn(-c3cccc([N+](=O)[O-])c3)c2Cl)cc(OC)c1O [Compound 8h, (1E,4E)-1-(5-Chloro-3-methyl-1-(3-nitrophenyl)-1H-pyrazol-4-yl)-5-(4-hydroxy-3,5-dimethoxyphenyl)penta-1,4-dien-3-one] | 2.56 ± 0.01 µM | 6.69 ± 0.04 µM | 22.1 ± 0.84% | 2.30 | 6.01
Cc1nn(-c2ccccc2)c(Cl)c1/C=C/C(=O)/C=C/c1ccc2c(c1)OCO2 [Compound 7f, (1E,4E)-1-(Benzo[d][1,3]dioxol-5-yl)-5-(5-chloro-3-methyl-1-phenyl-1H-pyrazol-4-yl)penta-1,4-dien-3-one] | 16.67 ± 0.07 µM | > 25 µM | – | – | –
COc1ccc(/C=C/C(=O)/C=C/c2cn(-c3ccccc3)nc2-c2ccccc2)c(OC)c1 [Compound 10b, (1E,4E)-1-(2,4-Dimethoxyphenyl)-5-(1,3-diphenyl-1H-pyrazol-4-yl)penta-1,4-dien-3-one] | > 25 µM | > 25 µM | – | – | –
COc1ccc(/C=C/C(=O)/C=C/c2cn(-c3ccccc3)nc2-c2ccccc2)cc1O [Compound 10d, (1E,4E)-1-(1,3-Diphenyl-1H-pyrazol-4-yl)-5-(3-hydroxy-4-methoxyphenyl)penta-1,4-dien-3-one] | 3.29 ± 0.18 µM | 6.74 ± 0.26 µM | 35.5 ± 0.51% | 1.25 | 2.55
COc1cc(/C=C/C(=O)/C=C/c2cn(-c3ccccc3)nc2-c2ccccc2)cc(OC)c1OC [Compound 10g, (1E,4E)-1-(1,3-Diphenyl-1H-pyrazol-4-yl)-5-(3,4,5-trimethoxyphenyl)penta-1,4-dien-3-one] | 14.3 ± 0.37 µM | > 25 µM | – | – | –
COc1ccc(/C=C/C(=O)/C=C/c2c(C)nn(-c3cccc([N+](=O)[O-])c3)c2Cl)cc1O [Compound 8d, (1E,4E)-1-[5-Chloro-3-methyl-1-(3-nitrophenyl)-1H-pyrazol-4-yl]-5-(3-hydroxy-4-methoxyphenyl)penta-1,4-dien-3-one] | 7.25 ± 0.08 µM | 25.3 ± 0.3 µM | – | – | –
COc1cc(/C=C/C(=O)/C=C/c2c(C)nn(-c3ccccc3)c2Cl)ccc1O [Compound 7c, (1E,4E)-1-(5-Chloro-3-methyl-1-phenyl-1H-pyrazol-4-yl)-5-(4-hydroxy-3-methoxyphenyl)penta-1,4-dien-3-one] | 7.71 ± 0.32 µM | 8 ± 0.87 µM | – | 1.19 | 1.24
O=C(/C=C/c1ccc2c(c1)OCO2)/C=C/c1cn(-c2ccccc2)nc1-c1ccccc1 [Compound 10f, (1E,4E)-1-(Benzo[d][1,3]dioxol-5-yl)-5-(1,3-diphenyl-1H-pyrazol-4-yl)penta-1,4-dien-3-one] | 22 ± 3.24 µM | > 25 µM | – | – | –
COc1cc(/C=C/C(=O)CC(=O)/C=C/c2ccc(O)c(OC)c2)ccc1O [curcumin, reference compound] | 20.7 ± 0.8 µM | 23.4 ± 7.27 µM | – | 1.51 | 1.72
CC(=O)O[C@H]1C(=O)[C@@]2(C)[C@H]([C@H](OC(=O)c3ccccc3)[C@]3(O)C[C@H](OC(=O)[C@H](O)[C@@H](NC(=O)c4ccccc4)c4ccccc4)C(C)=C1C3(C)C)[C@]1(OC(C)=O)CO[C@@H]1C[C@@H]2O [paclitaxel, reference compound] | 8.79 ± 0.96 µM | 12 ± 0.56 µM | – | – | –
COc1cc(/C=C/C(=O)/C=C/c2c(C)nn(-c3cccc([N+](=O)[O-])c3)c2Cl)cc(OC)c1OC [Compound 8g, (1E,4E)-1-(5-Chloro-3-methyl-1-(3-nitrophenyl)-1H-pyrazol-4-yl)-5-(3,4,5-trimethoxyphenyl)penta-1,4-dien-3-one] | 2.43 ± 0.04 µM | 14.65 ± 0.1 µM | – | 0.40 | 2.44
